Values of other authors as cited in patent publication US20220339103A1, “Lung-targeted corticosteroid treatment in viral respiratory disease, COVID-19 and ARDS (acute respiratory distress syndrome)” (Bodor Laboratories, Inc., priority 2021, published 2022).
Read-outs that look alike come from different tables or passages of the source.

Assays:
thymus = settings: for TD50, thymolysis potency: subcutaneous cotton pellet granuloma test
cotton pellet granuloma = settings: for ED50, anti-inflammatory activity in the cotton pellet granuloma test: subcutaneous cotton pellet granuloma test
intraocular pressure [1] = settings: corneal transplant patients developing very high IOP
[2] = target: T1, rat lung cytosol glucocorticoid receptors (Rattus norvegicus, UniProt P06536); settings: compared with dexamethasone
T1 construct: from tissue; host or cells: rat lung cytosol
T1 sequence (P06536 1-795): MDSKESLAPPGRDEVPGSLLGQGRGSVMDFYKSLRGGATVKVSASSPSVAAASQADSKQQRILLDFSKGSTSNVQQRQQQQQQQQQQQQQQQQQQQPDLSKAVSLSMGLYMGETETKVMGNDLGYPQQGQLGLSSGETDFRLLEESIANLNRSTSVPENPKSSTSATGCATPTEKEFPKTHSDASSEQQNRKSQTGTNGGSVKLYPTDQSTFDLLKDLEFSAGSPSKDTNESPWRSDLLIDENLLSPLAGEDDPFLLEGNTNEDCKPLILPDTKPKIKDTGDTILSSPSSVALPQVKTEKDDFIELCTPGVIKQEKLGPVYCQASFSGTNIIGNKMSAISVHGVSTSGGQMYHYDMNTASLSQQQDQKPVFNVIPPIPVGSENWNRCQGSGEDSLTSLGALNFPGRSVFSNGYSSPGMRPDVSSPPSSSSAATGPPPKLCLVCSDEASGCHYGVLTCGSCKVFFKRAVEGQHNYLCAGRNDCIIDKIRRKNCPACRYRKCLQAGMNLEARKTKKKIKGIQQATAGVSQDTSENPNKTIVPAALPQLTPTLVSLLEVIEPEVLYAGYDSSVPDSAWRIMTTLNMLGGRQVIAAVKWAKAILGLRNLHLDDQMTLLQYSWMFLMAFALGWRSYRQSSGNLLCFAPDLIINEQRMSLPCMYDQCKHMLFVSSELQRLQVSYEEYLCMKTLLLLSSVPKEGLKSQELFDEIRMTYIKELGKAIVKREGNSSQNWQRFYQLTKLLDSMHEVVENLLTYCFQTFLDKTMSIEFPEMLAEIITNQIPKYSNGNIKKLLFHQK

[3] = human vasoconstrictor studies
Paraoxonase 1 = Paraoxonase 1 (Homo sapiens, UniProt P27169)
Chain of Paraoxonase 1 (P27169 whole entry): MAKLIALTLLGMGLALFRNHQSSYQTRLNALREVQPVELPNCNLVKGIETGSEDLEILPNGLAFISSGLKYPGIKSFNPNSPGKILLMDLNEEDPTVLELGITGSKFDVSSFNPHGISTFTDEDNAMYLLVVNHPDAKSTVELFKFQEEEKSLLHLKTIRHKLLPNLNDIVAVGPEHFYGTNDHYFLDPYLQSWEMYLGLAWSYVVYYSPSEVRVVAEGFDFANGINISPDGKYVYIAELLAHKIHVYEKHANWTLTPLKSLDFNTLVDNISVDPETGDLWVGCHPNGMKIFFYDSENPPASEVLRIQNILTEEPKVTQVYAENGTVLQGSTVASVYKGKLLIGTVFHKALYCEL

[4] = system: seasonal allergic rhinitis (SAR) to grass pollen; settings: nasal spray, 100-800 μg, 645 SAR patients, vs PLA, p<0.03
[5] = 0.2% ophthalmic suspension, 159 patients treated >1 yr
[6] = system: hypothalamic-pituitary axis; settings: at any Loteprednol Etabonate use
intraocular pressure [7] = settings: long-term use, 28 days or longer; LE 0.2% or 0.5%, prednisolone acetate 1%
[8] = betamethasone 17α-valerate = 1.00

## CCCCC(=O)O[C@]1(C(=O)CO)[C@@H](C)C[C@H]2[C@@H]3CCC4=CC(=O)C=C[C@]4(C)[C@@]3(F)[C@@H](O)C[C@@]21C [Betamethasone 17α-valerate (BV) (0.12%), Betamethasone 17α-valerate]
thymus; [8]
  Rel.pot., relative timolysis effect: 1.00
thymus
  TD50, thymolysis potency: 212 μg/pellet
Cotton pellet granuloma; [8]
  Rel.pot., relative inflammatory effect compared to betamethasone: 1.00
Cotton pellet granuloma
  ED50, anti-inflammatory activity in the cotton pellet granuloma test: 84.8 μg/pellet

## CCC(=O)O[C@]1(C(=O)CCl)[C@@H](C)C[C@H]2[C@@H]3CCC4=CC(=O)C=C[C@]4(C)[C@@]3(F)C(=O)C[C@@]21C [Clobetasone-17α-propi onate (KP) (0.1%), Clobetasone-17α-propi onate]
thymus; [8]
  Rel.pot., relative timolysis effect: 19.30
thymus
  TD50, thymolysis potency: 11 μg/pellet
Cotton pellet granuloma; [8]
  Rel.pot., relative inflammatory effect compared to betamethasone: 29.70
Cotton pellet granuloma
  ED50, anti-inflammatory activity in the cotton pellet granuloma test: 2.9 μg/pellet

## CCCC(=O)O[C@]1(C(=O)CO)CC[C@H]2[C@@H]3CCC4=CC(=O)CC[C@]4(C)[C@H]3[C@@H](O)C[C@@]21C [Hydrocortisone 17α-butyrate (HB) (0.1%), Hydrocortisone 17α-butyrate]
thymus; in vivo
  Rel.pot., relative timolysis effect: 0.57
thymus
  TD50, thymolysis potency: 369 μg/pellet
Cotton pellet granuloma; [8]
  Rel.pot., relative inflammatory effect compared to betamethasone: 0.70
Cotton pellet granuloma
  ED50, anti-inflammatory activity in the cotton pellet granuloma test: 121.0 μg/pellet

## CCOC(=O)O[C@]1(C(=O)OCCl)CC[C@H]2[C@@H]3CCC4=CC(=O)C=C[C@]4(C)[C@H]3[C@@H](O)C[C@@]21C [Loteprednol Etabonate, chloromethyl 17α-ethoxycarbonyloxy-11β-hydroxyandrosta-1,4-dien-3-one-17β-carboxylate]
thymus; in vivo
  Rel.pot., relative timolysis effect: 0.02
thymus
  TD50, thymolysis potency: 10,000 μg/pellet
Intraocular pressure [1]
  IOP after replacing prednisolone acetate with LE: all IOP-s were returned to normal
[2]
  corticosteroid receptor binding: significantly higher than that of dexamethasone
[3]
  topical activity: very good topical activity
Paraoxonase 1
  hydrolyzing esterase: hydrolyzed by the HDL-connected Paraoxonase 1
[4]
  change from baseline in two-week average reflective Total Nasal Symptom Score (TNSS): significantly more efficacious than PLA
[5]
  adverse effects of long-term use: no reported adverse effects
Cotton pellet granuloma; in vivo
  Rel.pot., relative inflammatory effect compared to betamethasone: 0.48
Cotton pellet granuloma
  ED50, anti-inflammatory activity in the cotton pellet granuloma test: 178.0 μg/pellet
[6]
  suppression of the hypothalamic-pituitary axis: no significant suppression
Intraocular pressure [7]
  IOP elevation greater than or equal to 10 mmHg, share of subjects: 0.64%
